Test results as given in US11319289B2, “5-hydroxy pyridine-based compound for use as P2X1 and P2X3 receptor antagonist and pharmaceutical composition comprising same” (GWANGJU INSTITUTE OF SCIENCE AND TECHNOLOGY, priority 2017, dated 2022).

Tests used:
[1] = test system: SNL rats (mechanical allodynia); test: Antiallodynic effect (von Frey) in spinal nerve ligation (SNL) rats; assay type: in vivo, rat; settings: for ED50: Rattus norvegicus, antiallodynic effect, intravenous administration
Description: (§1) 3-1. Evaluation of In Vivo Efficacy
(§2) The antiallodynic effects (mechanical allodynia) were evaluated using rats according to a previously reported protocol. In order to evaluate the withdrawal threshold, rats (naive, SNL and CIPN) were placed on a plastic mesh floor of individual plastic cages. The rats were allowed to acclimate to the environment for 30 minutes and examined after intrathecal or intravenous administration to the caudal vein. The control group received the same volume of vehicle (intrathecal administration of saline or DMSO, intravenous administration of DMSO:PEG:PBS=1:6:3 v/v %) as the experimental groups. Evaluation of the mechanical withdrawal threshold was measured in responses to the application of calibrated von Frey filaments (Stoelting, Wood Dale, Ill., USA) to the hind paw of the rats through the holes on the mesh floor underneath the cage using the ‘up and down method’. A series of eight von Frey filaments (0.4, 0.7, 1.2, 2.0, 3.6, 5.5, 8.5, and 15 g) was applied perpendicular to the sole of the hind paw for 5 seconds while the head was bent. Active withdrawal or flinching of the paw was considered as a positive reaction. The absence of response in the rats, when a pressure was applied to 15 g von Frey filament, was used as a cut-off value. Only rats with definite allodynia (i.e., mechanical withdrawal threshold: less than 4 g after SNL or less than 5 g after CIPN) were tested. The rats after termination of the experiments were euthanized through an overdose of sevoflurane. The withdrawal threshold data for the von Frey filament test was calculated as % MPE (maximum possible effect) based on the following Calculation Equation: % MPE=[(Post-drug threshold−Post-injured baseline threshold)/(Cutoff threshold−post-injured baseline threshold)×100]. Dose-response data were analyzed using Scheffe's post hoc test and one-way analysis of variance (ANOVA).

[2] = test system: CIPN rats (mechanical allodynia); test: Antiallodynic effect (von Frey) in chemotherapy-induced peripheral neuropathy (CIPN) rats; assay type: in vivo; settings: Rattus norvegicus, intravenous administration
Description: as §1, §2

[3] = test system: neuropathic pain (NeP) animal models; test: Efficacy in neuropathic pain (NeP) animal models, model not specified; assay type: in vivo, rat; settings: Rattus norvegicus, read-out: ED50 of clinical drugs for NeP
Description: as §1, §2

Q: CCCc1nc(Cc2cccc(Oc3ccccc3)c2)c(C)c(C(=O)OCCc2ccccc2)c1O [Compound 46a, Phenethyl 3-hydroxy-5-methyl-6-(3-phenoxybenzyl)-2-propylisonicotinate] was tested. Which ED50 [1] did it give?
A: 2.31 mg/kg

Q: What about the ED50 [2] of the same compound?
A: 3.02 mg/kg

Q: Which results are given for CCCCCCCCOC(=O)c1c(C)c(Cc2cccc(Oc3ccccc3)c2)nc(CCC)c1O [Compound 46b, Octyl 3-hydroxy-5-methyl-6-(3-phenoxybenzyl)-2-propylisonicotinate]?
A: ED50 [1]: 2.47 mg/kg; ED50 [2]: 2.93 mg/kg

Q: Which ED50 [1] does the source give for CCCc1nc(Cc2cccc(Oc3ccccc3)c2)c(C)c(C(=O)OCCN2C(=O)c3ccccc3C2=O)c1O [Compound 46c, 2-phthalimidoethyl 3-hydroxy-5-methyl-6-(3-phenoxybenzyl)-2-propylisonicotinate] here?
A: 2.97 mg/kg

Q: And the ED50 [2]?
A: 3.28 mg/kg

Q: With CCCc1nc(Cc2cccc(Oc3ccccc3)c2)c(C)c(C(=O)OCCCCN2C(=O)c3ccccc3C2=O)c1O [Compound 46d, 4-phthalimidobutyl 3-hydroxy-5-methyl-6-(3-phenoxybenzyl)-2-propylisonicotinate] as the compound, how does the ED50 [1] read?
A: 3.12 mg/kg

Q: And the ED50 [2]?
A: 3.94 mg/kg

Q: For CCCc1nc(Cc2cccc(Oc3ccccc3)c2)c(C)c(C(=O)OCCN2CCCC2)c1O [Compound 46e, 2-(pyrrolidin-1-yl)ethyl 3-hydroxy-5-methyl-6-(3-phenoxybenzyl)-2-propylisonicotinate], which ED50 [1] is on record?
A: 3.02 mg/kg

Q: What about the ED50 [2] of the same compound?
A: 3.55 mg/kg

Q: How did the ED50 [1] turn out when CCCc1nc(Cc2cccc(Oc3ccccc3)c2)c(C)c(C(=O)OC(C)C)c1O [Compound 46f, Isopropyl 3-hydroxy-5-methyl-6-(3-phenoxybenzyl)-2-propylisonicotinate] was run?
A: 2.78 mg/kg

Q: And the ED50 [2]?
A: 3.08 mg/kg

Q: What does the source list for CCCc1nc(Cc2cccc(Oc3ccccc3)c2)c(C)c(C(=O)OC(CC)CC)c1O [Compound 46g, Pentan-3-yl 3-hydroxy-5-methyl-6-(3-phenoxybenzyl)-2-propylisonicotinate]?
A: ED50 [1]: 3.42 mg/kg; ED50 [2]: 3.66 mg/kg

Q: What does the source list for CCCc1nc(Cc2cccc(Oc3ccccc3)c2)c(C)c(C(=O)OC2CCCC2)c1O [Compound 46h, Cyclopentyl 3-hydroxy-5-methyl-6-(3-phenoxybenzyl)-2-propylisonicotinate]?
A: ED50 [1]: 3.64 mg/kg; ED50 [2]: 3.91 mg/kg

Q: Which results are given for CCCc1nc(Cc2cccc(Oc3ccccc3)c2)c(C)c(C(=O)OC2CCOC2)c1O (stereo not shown) [Compound 46i, Tetrahydrofuran-3-yl 3-hydroxy-5-methyl-6-(3-phenoxybenzyl)-2-propylisonicotinate]?
A: ED50 [1]: 2.87 mg/kg; ED50 [2]: 3.56 mg/kg

Q: With CCCc1nc(Cc2cccc(Oc3ccccc3)c2)c(C)c(C(=O)OC2CCNCC2)c1O [Compound 47, Piperidin-4-yl 3-hydroxy-5-methyl-6-(3-phenoxybenzyl)-2-propylisonicotinate] as the compound, how does the ED50 [1] read?
A: 3.35 mg/kg

Q: What about the ED50 [2] of the same compound?
A: 3.77 mg/kg

Q: Which results are given for CCCc1nc(Cc2cccc(Oc3ccccc3)c2)c(C)c(C(=O)OCC)c1O [Compound 48, Ethyl 3-hydroxy-5-methyl-6-(3-phenoxybenzyl)-2-propylisonicotinate]?
A: ED50 [1]: 3.52 mg/kg; ED50 [2]: 3.87 mg/kg

Q: CC(C)C[C@H](CN)CC(=O)O [pregabalin, reference compound] was tested. Which ED50 [3] did it give?
A: 4.21 mg/kg

Q: And the “antiallodynic efficacy, MPE %” value ([1]; 1 μg, intrathecal administration)?
A: 65±9%

Q: With COc1cccc(C2(O)CCCCC2CN(C)C)c1 (stereo not shown) [tramadol, reference compound] as the compound, how does the ED50 [3] read?
A: 4.67 mg/kg
